Values joined by “and” are separate entries in the source; they are usually repeats but may differ in a detail not shown here. Equal entries are not always repeated.

Data on 13 compounds can be found in US12655174B2, “Adenosine A3 receptor agonists, preparation methods and uses thereof” (ZHEJIANG VIMGREEN PHARMACEUTICALS, LTD., priority 2020, dated 2026).

The target in one data set is T1, ADORA3 receptor (Homo sapiens, UniProt P0DMS8).
T1 sequence (P0DMS8 1-318): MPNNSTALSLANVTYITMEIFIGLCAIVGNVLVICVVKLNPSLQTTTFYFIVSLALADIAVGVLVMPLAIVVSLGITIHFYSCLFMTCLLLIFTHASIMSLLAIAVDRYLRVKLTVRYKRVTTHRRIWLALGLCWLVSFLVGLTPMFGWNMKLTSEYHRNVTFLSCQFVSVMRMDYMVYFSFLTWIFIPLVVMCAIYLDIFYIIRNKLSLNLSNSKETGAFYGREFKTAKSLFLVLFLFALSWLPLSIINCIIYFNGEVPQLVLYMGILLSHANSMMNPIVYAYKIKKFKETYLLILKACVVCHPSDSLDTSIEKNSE
The data set is described as follows: Agonistic effect on adenosine A3 receptor by FLIPR assay (calcium flux assay). To be noted: agonist mode. The data set is classed as cell-based. As for the experimental part: Example 27: Agonistic Effect of Compound on Adenosine A3 Receptor by FLIPR Assay (Calcium Flux Assay)
First Day: Cell Inoculation
• 1) With regard to ADORA3 receptor, cultured cells were used for inoculation: the culture medium was aspirated and the cells were washed twice with 10 mL of DPBS. 2 mL of 0.05% EDTA-trypsin was added and the cells were incubated at 37° C. for 1 minute. Then 10 mL of the culture medium was added to stop the digestion and the cell suspension was transferred to a 50-mL tapered tube. • 2) The 50-mL tapered tube containing the various cells was centrifuged at 300 g for 5 minutes. • 3) A supernatant was aspirated and no cells should be aspirated. • 4) The cell precipitate was resuspended in 6-8 mL of the culture medium, and then 0.5 mL of the cells were taken out for cell counting by using a Vi-cell XR cell viability analyzer. • 5) The cell suspension was diluted to 1×10^6 cells/mL (20 μL of 20,000 cells per well) in the culture medium and the cells were inoculated into a cell plate (384-well Poly-D-lysine protein-coated plate, Greiner-781946). • 6) The plate was placed in a 37° C./5% CO2 incubator for 16-20 hours. Second Day: • 1) Preparation of 2×Fluo-4 Direct™ uptaking dye • a. Preparation of probenecid solution • 1 mL of FLIPR assay buffer was added to 77 mg of probenecid (provided by Fluo-4 Direct™ calcium assay kit) to be prepared into 250 mM of a probenecid solution. The fresh probenecid solution was used daily. • b. 2×(8 μM) Fluo-4 Direct™ loading dye (per 10 mL)
A vial of the Fluo-4 Direct™ crystal was thawed and then 10 mL of the FLTPR analytical buffer was added to the vial. Then 0.2 mL of 250 mM of a probe solution was added to every 10 mL Fluo-4 Direct™ crystal to a final assay concentration of 2.5 mM. The solution was vortexed and stood for >5 min at a dark place. 2×Fluo-4 Direct™ uptaking dye was freshly prepared daily. • 2) Compound preparation • a. Preparation of compound plate: all reference and test compounds were serially diluted 4-fold in 10 points by using an Echo liquid processor and then 900 nL of the diluted compounds were transferred to a compound plate. • b. 30 μL FLIPR analytical buffer was added to the compound plate and the plate was centrifuged at 300 g for 1 minute. • 3) FLIPR analysis • a. With regard to ADORA3 receptor: firstly, the cell plate was taken out from a culture box. The culture medium was then aspirated and 20 μL of the FLIPR analytical buffer was added. The cell plate was placed in an incubator for 45 minutes and at a room temperature for 15 minutes. • b. To run an experimental solution on […], 10 μL of the FLIPR analytical buffer was transferred from the compound plate to a cell plate, and then the fluorescent signal was read. Then 10 μL of a compound solution was transferred from the compound plate to the cell plate and the fluorescence signal was read. “Max−min” was calculated from Reader 91 to an allowed maximum value. • c. With regard to agonist: activation %=(RLU−LC)/(HC−LC)*100, • wherein RLU=relative light unit, allowed maximum signal was 91; HC=average signal of high concentration agonist; and LC=mean signal of DMSO well. • d. Data were fitted to a model “log (agonist) versus response-variable slope” by using GraphPad Prism 5 to determine an EC50 value. • e. […] 2. Test Result

Data set [1] can be described thus: Pharmacokinetic test of compound in SD rat. The data set is classed as in vivo. To be noted: SD rats, intragastric administration (IG), cassette dosing. As for the experimental part:
Example 28: Pharmacokinetic Test of Compound in SD Rat
The animal species used in this experiment were SD rats. There were 3 animals per group. The rats were dosed in cassette format, i.e., multiple (1-6) different compounds were dosed simultaneously to the same group of the SD rats. The vehicle used for the drug was 5% DMSO+5% Solutl+90% ([…] methylcellulose M450), and the administration route was intragastric administration (IG).

Data set [2] concerns the target T2, ADORA3 receptor (CHO cells stably expressing ADORA3 receptor) (Homo sapiens, UniProt P0DMS8).
T2 construct: expressed in transfected cells
T2 sequence (P0DMS8 1-318): T1 sequence (P0DMS8 1-318)
As to the kind of experiment: Effect of compound on intracellular cAMP level by adenosine A3 receptor agonism. The data set is classed as cell-based. Particulars: forskolin-stimulated. As for the experimental part:
Example 26: Test the Effect of Compound on Intracellular cAMP Level by Adenosine A3 Receptor Agonism
• 1) 1×HBSS with Ca2+ and Mg2+ (14 mL), 1 M HEPES (75 μL), a 7.5% (w/v) BSA stabilizer (pH 7.4, 200 μL), and 20 mM rolipram (7.5 μL) were respectively prepared as cAMP assay buffer. • 2) Preparation of compound source plate • a. […] A 10 mM stock solution was subjected to a 3-fold serial dilution by 100% (v/v) DMSO to prepare 10 doses of the test substance. • c. 1 mM of Forskolin was prepared by 100% (v/v) DMSO. • 3) Preparation of test plate • a. Prior to the assay, CHO cells stably expressing ADORA3 receptor were harvested and the cells were counted by using a Countess cell counter. […] The cells were seeded at a density of 2,000 cells/well in a 384-well plate. • 4) 10 nL/well of the serially diluted compound and 10 nL/well of 1 mM of forskolin were transferred to each well with ADORA3 receptor expressing cells by using Echo550. • 5) A cell plate was centrifuged at 1,000 rpm for 1 minute and then stirred at 600 rpm for 2 minutes. The plate was incubated at 37° C. • 6) An Eu-cAMP tracer working solution and an Ulight-anti-cAMP working solution were prepared according to the following table.
• 7) 5 μl/well of the Eu-cAMP tracer working solution and 5 μl/well of the Ulight-anti-cAMP working solution were added to each well of the plate. […] 2. Data Analysis • 1) An activation percentage was calculated by using the following formula:
[formula] • % Activation: activation percentage • Ratiocpd: ratio of emissivity of test compound • RatioLow control: ratio of low emissivity • RatioHigh control: ratio of high emissivity • 2) EC50 was calculated by an XLfit using the Hill equation to fit the activity percentage and a log of a compound concentration. 3. Test Result

As for `CNC(=O)[C@H]1O[C@@H](n2cnc3c(NCc4cccc(Cl)n4)nc(-c4cncc(F)c4)nc32)[C@H](O)[C@@H]1O` [compound 227, (2S,3S,4R,5R)-5-(6-(((6-chloropyridin-2-yl)methyl)amino)-2-(5-fluoropyridin-3-yl)-9H-purin-9-yl)-3,4-dihydroxyl-N-methyltetrahydrofuran-2-carboxamide], at ADORA3 receptor, the EC50 was determined as 3.53 nM. Moreover, the “AUC_D” value in data set [1] came out at 233.07 kg·ng·h/mL/mg.

Regarding `CCNC(=O)[C@H]1O[C@@H](n2cnc3c(NC)nc(-c4cccnc4)nc32)[C@H](O)[C@@H]1O` [compound 42, (2S,3S,4R,5R)-N-ethyl-3,4-dihydroxyl-5-(6-(methylamino)-2-(pyridin-3-yl)-9H-purin-9-yl)-tetrahydrofuran-2-formamide], the concentration for a half-maximal effect (EC50) at ADORA3 receptor was 12.7 nM.

For `CCNC(=O)[C@H]1O[C@@H](n2cnc3c(NC)nc(-c4cncc(F)c4)nc32)[C@H](O)[C@@H]1O` [compound 43, (2S,3S,4R,5R)-N-ethyl-5-(2-(5-fluoropyridin-3-yl)-6-(methylamino)-9H-purin-9-yl)-3,4-dihydroxyl-tetrahydrofuran-2-formamide], at ADORA3 receptor, the EC50 was found to be 11.4 nM. Further, in data set [1], the “AUC_D” value came out at 87.99 kg·ng·h/mL/mg. The corresponding values for `CNC(=O)[C@H]1O[C@@H](n2cnc3c(NCc4cc(C)ccn4)nc(-c4cncc(C)c4)nc32)[C@H](O)[C@@H]1O` [compound 190, (2S,3S,4R,5R)-3,4-dihydroxyl-N-methyl-5-(6-((4-methylpyridin-2-yl)methylamino)-2-(5-methylpyridin-3-yl)-9H-purin-9-yl)-tetrahydrofuran-2-formamide] are 9.06 nM and 2205.59 kg·ng·h/mL/mg. In the same order, the values of `CNC(=O)[C@H]1O[C@@H](n2cnc3c(NCc4cc(C)ccc4F)nc(-c4cccnc4)nc32)[C@H](O)[C@@H]1O` [compound 191, (2S,3S,4R,5R)-5-(6-(2-fluoro-5-methylbenzylamino)-2-(pyridin-3-yl)-9H-purin-9-yl)-3,4-dihydroxyl-N-methyl-tetrahydrofuran-2-formamide] are 5.29 nM and 1183.39 kg·ng·h/mL/mg. On to `CCNC(=O)[C@H]1O[C@@H](n2cnc3c(NC)nc(-c4cncc(Cl)c4)nc32)[C@H](O)[C@@H]1O` [compound 90, (2S,3S,4R,5R)-5-(2-(5-chloropyridin-3-yl)-6-(methylamino)-9H-purin-9-yl)-N-ethyl-3,4-dihydroxyltetrahydrofuran-2-carboxamide], for which the concentration giving a half-maximal response (EC50) on ADORA3 receptor came out at 25.2 nM. Consider `CCNC(=O)[C@H]1O[C@@H](n2cnc3c(NC)nc(-c4cncc(OC)c4)nc32)[C@H](O)[C@@H]1O` [compound 73, (2S,3S,4R,5R)-N-ethyl-3,4-dihydroxyl-5-(2-(5-methoxypyridin-3-yl)-6-(methylamino)-9H-purin-9-yl)tetrahydrofuran-2-carboxamide], for which the EC50 at ADORA3 receptor stood at 29.6 nM. For the compound `CNC(=O)[C@H]1O[C@@H](n2cnc3c(NCc4cccc(Cl)n4)nc(-c4cncc(OC)c4)nc32)[C@H](O)[C@@H]1O` [compound 230, (2S,3S,4R,5R)-5-(6-(((6-chloropyridin-2-yl)methyl)amino)-2-(5-methoxypyridin-3-ly)-9H-purin-9-yl)-3,4-dihydroxyl-N-methyltetrahydrofuran-2-carboxamide], a half-maximal response in data set [2] (EC50) required 8.68 nM. Further, in data set [1], the “AUC_D” value amounted to 212.91 kg·ng·h/mL/mg. Compound `CCOc1cncc(-c2nc(NCc3cccc(C)c3)c3ncn(C4O[C@H](C(=O)NC)[C@@H](O)[C@H]4O)c3n2)c1` (stereo in doubt) [compound 301, (2S,3S,4R,5S)-5-(2-(5-ethoxypyridin-3-yl)-6-((3-methylbenzyl)amino)-9H-purin-9-yl)-3,4-dihydroxyl-N-methyltetrahydrofuran-2-carboxamide] had an EC50 in data set [2] of 3.78 nM. In data set [1], the “AUC_D” value worked out at 744.06 kg·ng·h/mL/mg. `CNC(=O)[C@H]1O[C@@H](n2cnc3c(NCc4cccc(C)c4)nc(-c4cccnc4)nc32)[C@H](O)[C@@H]1O` [compound 108, (2S,3S,4R,5R)-3,4-dihydroxyl-N-methyl-5-(6-((3-methylbenzyl)amino)-2-(pyridin-3-yl)-9H-purin-9-yl)tetrahydrofuran-2-carboxamide] gave a 50% effective concentration (EC50) in data set [2] of 1.58 nM. Also, the “AUC_D” value in data set [1] turned out to be 801.47 kg·ng·h/mL/mg. The compound `CNC(=O)[C@H]1O[C@@H](n2cnc3c(NCc4cccc(C)n4)nc(-c4cncc(OC)c4)nc32)[C@H](O)[C@@H]1O` [compound 111, (2S,3S,4R,5R)-3,4-dihydroxyl-5-(2-(5-methoxypyridin-3-yl)-6-((((6-methylpyridin-2-yl))methyl)amino)-9H-purin-9-yl)-N-methyltetrahydrofuran-2-carboxamide] yielded an EC50 in data set [2] of 7.32 nM. Moreover, in data set [1], the “AUC_D” value amounted to 230.72 kg·ng·h/mL/mg. The corresponding values for `CNC(=O)[C@H]1OC(n2cnc3c(NCc4ccccn4)nc(-c4cncc(OC)c4)nc32)[C@H](O)[C@@H]1O` (stereo in doubt) [compound 307, (2S,3S,4R,5S)-3,4-dihydroxyl-5-(2-(5-methoxypyridin-3-yl)-6-((pyridin-2-ylmethyl)amino)-9H-purin-9-yl)-N-methyltetrahydrofuran-2-carboxamide] are 9.4 nM and 173.85 kg·ng·h/mL/mg.

For `CNC(=O)[C@H]1O[C@@H](n2cnc3c(NCc4cccc(C)c4)nc(-c4cncc(Cl)c4)nc32)[C@H](O)[C@@H]1O` [compound 160, (2S,3S,4R,5R)-5-(2-(5-chloropyridin-3-yl)-6-((3-methylbenzyl)amino)-9H-purin-9-yl)-3,4-dihydroxyl-N-methyltetrahydrofuran-2-carboxamide], a half-maximal effect in data set [2] (EC50) was put at 3.53 nM. The “AUC_D” value in data set [1] was 1900.75 kg·ng·h/mL/mg and 1515.94 kg·ng·h/mL/mg.

The EC50 is the concentration giving half of the maximal effect.
